Measurements from paper PMC4861708 (Frontiers in Cell and Developmental Biology, 2016).
In brackets after ≈: the same amount, converted by molar mass. Where a SMILES comes first, the peptide text is derived from it. [ ]: non-standard residue; d: D form. The star is where a group is joined. Orn(α-tetramethylguanidino) = CN(C)C(=N[C@@H](CCCN)C(=O)*)N(C)C; Orn = NCCC[C@H](N)C(=O)O

How the values were obtained:
P. aeruginosa elastase = molecular target: T1, P. aeruginosa elastase (Pseudomonas aeruginosa, UniProt P14756); test: Elastase assay (proteolytic stability); assay type: in vitro ADME; conditions: after 6 h, elastase 12 units/mL, pH 8.3, 37°C
T1 construct: purchased Merck (Darmstadt, Germany)
Procedure: A stock solution of P. aeruginosa elastase (0.26 U/μL) was prepared in Tris-HCl (5 mmol/L, pH 8.3) and stored at −80°C. Peptides (0.5 g/L in 5 mmol/L Tris-HCl, pH 8.3) were incubated with elastase (0.012 U/μL) at 37°C under constant shaking (450 rpm) for 0, 0.5, 2, 4, and 6 h. Aliquots (10.5 μL) were precipitated with a mixture of acetonitrile and ethanol (1:1 v/v) containing 0.1% TFA (21 μL), centrifuged, the supernatant transferred into a new tube, and dried in vacuum. Samples were dissolved in aqueous acetonitrile (3% v/v) containing TFA (0.1% v/v) and analyzed by RP-HPLC using the conditions described above.

[1] = tested on: E. coli DSM 1103 (ATCC 25922); assay type: cell-based, Escherichia coli; conditions: DSM 1103, 24 h
Procedure: (§1) MICs of P. aeruginosa strains DSM 1117 (ATCC 27853), DSM 3227 (ATCC 19429), and DSM 9644 were determined in a microdilution broth assay using 50 or 100% MHB (11.5 and 23 g/L MHB, respectively) whereas MICs of E. coli DSM 1103 (ATCC 25922) and K. pneumoniae DSM 681 (ATCC 10031) were determined in TSB (30 g/L TSB). Peptides (1 g/L in water) were serially two-fold diluted in a 96-well microtiter plate (PS, sterile, flat bottom) in 50 μL of the corresponding medium to final concentrations of 512–4 μg/mL. Bacteria were grown in nutrient broth overnight and diluted to a cell concentration of 1.5 × 10^7 cells/mL in the corresponding medium. Cell densities were determined by using the McFarland standard as reference. An aliquot (50 μL) of the cell culture was added to each well and incubated (37°C, 24 h). The OD595 was determined in a SpectraMax 340PC (Molecular Devices, Sunnyvale, USA). Additionally, MIC values were also determined for high bacteria densities (5 × 10^8 cells/mL) corresponding to the conditions used for TEM, as described above.

[2] = tested on: K. pneumoniae DSM 681 (ATCC 10031); assay type: cell-based, Klebsiella pneumoniae; conditions: DSM 681, 24 h
Procedure: as §1

[3] = tested on: P. aeruginosa DSM 1117 (ATCC 27853); assay type: cell-based, Pseudomonas aeruginosa; conditions: DSM 1117, 24 h
Procedure: as §1

E. coli DSM 1103 = test: Transmission electron microscopy, morphological changes; assay type: cell-based, Escherichia coli; conditions: 1 h
Procedure: Peptide-bacteria mixtures were fixed (2% glutaraldehyde, 5 mmol/L CaCl2, 10 mmol/L MgCl2 in 0.1 mol/L sodium cacodylate buffer, pH 7.4) overnight at 4°C. […] Samples were rinsed with distilled water (5 × 10 min), incubated with aqueous uranylacetate (0.5% w/v) for 1 h at 4°C, washed with distilled water (3 × 10 min), and embedded in Epon. The hardened blocks were sectioned (50 nm) on a UCT ultramicrotome (Leica, Vienna, Austria), stained with uranyl acetate and lead citrate on an AC20 system (Leica), and visualized at a Tecnai 12 electron microscope (FEI, Eindhoven, The Netherlands) at 80 kV. Morphological effects were quantified on average for 25 cells per condition.

T1 sequence (P14756 198-498): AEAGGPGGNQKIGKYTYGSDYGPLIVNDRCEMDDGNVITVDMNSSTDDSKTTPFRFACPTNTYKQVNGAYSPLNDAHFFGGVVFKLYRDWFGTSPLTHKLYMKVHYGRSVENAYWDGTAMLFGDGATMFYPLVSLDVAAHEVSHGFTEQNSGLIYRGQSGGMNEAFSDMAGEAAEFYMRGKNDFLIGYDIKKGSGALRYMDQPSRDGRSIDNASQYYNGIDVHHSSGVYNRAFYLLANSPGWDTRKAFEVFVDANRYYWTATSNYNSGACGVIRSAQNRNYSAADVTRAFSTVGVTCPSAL

CC[C@H](C)[C@H](NC(=O)[C@H](Cc1ccc(O)cc1)NC(=O)[C@@H](NC(=O)[C@@H]1CCCN1C(=O)[C@H](CCCNC(=N)N)NC(=O)[C@H](CC(N)=O)NC(=O)[C@H](CC(N)=O)NC(=O)[C@H](CCCN)N=C(N(C)C)N(C)C)C(C)C)C(=O)N1CCC[C@H]1C(=O)N[C@@H](CCCNC(=N)N)C(=O)N1CCC[C@H]1C(=O)N[C@@H](CCCNC(=N)N)C(=O)N1CCC[C@H]1C(=O)N1CCC[C@H]1C(=O)N[C@@H](Cc1c[nH]cn1)C(=O)N1CCC[C@H]1C(=O)N[C@@H](CCCNC(=N)N)C(=O)N[C@@H](CC(C)C)C(=O)O [Api137, gu-ONNRPVYIPRPRPPHPRL-OH, reference compound] ({Orn(α-tetramethylguanidino)}-NNRPVYIPRPRPPHPRL-OH)
Peptide remaining with elastase (P. aeruginosa elastase): fully recovered
MIC E. coli ATCC 25922 [1]: 2 µg/mL (≈ 0.873 µM)
MIC E. coli DSM 1103, high inoculum [1]: 32 µg/mL (≈ 14 µM)
MIC K. pneumoniae DSM 681 [2]: 16 µg/mL (≈ 6.98 µM)
MIC P. aeruginosa DSM 1117, high inoculum [3]: 128 µg/mL (≈ 55.9 µM)
Cell: r, ruptured (E. coli DSM 1103; 8 µg/mL): 0%
DNA/Ribosomes relocalized (E. coli DSM 1103; 8 µg/mL): 17%
Fragments: +++, long and thick (E. coli DSM 1103; 8 µg/mL): 0%
Fragments: ++, long and thin (E. coli DSM 1103; 8 µg/mL): 27%
Fragments: +, small and thin (E. coli DSM 1103; 8 µg/mL): 30%
Fragments: -, no (E. coli DSM 1103; 8 µg/mL): 43%
Fragments: LV, large vesicles (E. coli DSM 1103; 8 µg/mL): 0%
Membrane: i, intact (E. coli DSM 1103; 8 µg/mL): 100%
Membrane: w, wrinkled (E. coli DSM 1103; 8 µg/mL): 0%
Vesicle release strong (E. coli DSM 1103; 8 µg/mL): 100%
Cell: r, ruptured (E. coli DSM 1103; 32 µg/mL): 0%
DNA/Ribosomes relocalized (E. coli DSM 1103; 32 µg/mL): 30%
Fragments: +++, long and thick (E. coli DSM 1103; 32 µg/mL): 0%
Fragments: ++, long and thin (E. coli DSM 1103; 32 µg/mL): 23%
Fragments: +, small and thin (E. coli DSM 1103; 32 µg/mL): 40%
Fragments: -, no (E. coli DSM 1103; 32 µg/mL): 37%
Fragments: LV, large vesicles (E. coli DSM 1103; 32 µg/mL): 0%
Membrane: i, intact (E. coli DSM 1103; 32 µg/mL): 97%
Membrane: w, wrinkled (E. coli DSM 1103; 32 µg/mL): 3%
Vesicle release strong (E. coli DSM 1103; 32 µg/mL): 100%
Cell: r, ruptured (E. coli DSM 1103; 128 µg/mL): 0%
DNA/Ribosomes relocalized (E. coli DSM 1103; 128 µg/mL): 0%
Fragments: +++, long and thick (E. coli DSM 1103; 128 µg/mL): 0%
Fragments: ++, long and thin (E. coli DSM 1103; 128 µg/mL): 42%
Fragments: +, small and thin (E. coli DSM 1103; 128 µg/mL): 54%
Fragments: -, no (E. coli DSM 1103; 128 µg/mL): 4%
Fragments: LV, large vesicles (E. coli DSM 1103; 128 µg/mL): 0%
Membrane: i, intact (E. coli DSM 1103; 128 µg/mL): 4%
Membrane: w, wrinkled (E. coli DSM 1103; 128 µg/mL): 96%
Vesicle release weak (E. coli DSM 1103; 128 µg/mL): 35%
Cell: r, ruptured (E. coli DSM 1103; 512 µg/mL): 0%
DNA/Ribosomes relocalized (E. coli DSM 1103; 512 µg/mL): 0%
Fragments: +++, long and thick (E. coli DSM 1103; 512 µg/mL): 0%
Fragments: ++, long and thin (E. coli DSM 1103; 512 µg/mL): 29%
Fragments: +, small and thin (E. coli DSM 1103; 512 µg/mL): 61%
Fragments: -, no (E. coli DSM 1103; 512 µg/mL): 11%
Fragments: LV, large vesicles (E. coli DSM 1103; 512 µg/mL): 0%
Membrane: i, intact (E. coli DSM 1103; 512 µg/mL): 32%
Membrane: w, wrinkled (E. coli DSM 1103; 512 µg/mL): 68%
Vesicle release weak (E. coli DSM 1103; 512 µg/mL): 50%

CC(C)C[C@H](NC(=O)[C@H](CCCNC(=N)N)NC(=O)[C@@H]1CCCN1C(=O)[C@H](Cc1c[nH]cn1)NC(=O)[C@@H]1CCCN1C(=O)[C@@H]1CCCN1C(=O)[C@H](CCCNC(=N)N)NC(=O)[C@@H]1CCCN1C(=O)[C@H](CCCNC(=N)N)NC(=O)[C@@H]1CCCN1C(=O)[C@H](CCCN)NC(=O)[C@H](Cc1ccc(O)cc1)NC(=O)[C@@H](NC(=O)[C@@H]1CCCN1C(=O)[C@H](CCCNC(=N)N)NC(=O)[C@H](CCCN)NC(=O)[C@H](Cc1c[nH]c2ccccc12)NC(=O)[C@H](CCCN)NC(=O)[C@H](Cc1c[nH]c2ccccc12)NC(=O)[C@H](CCCN)NC(=O)[C@H](Cc1c[nH]c2ccccc12)NC(=O)[C@H](CCCN)N=C(N(C)C)N(C)C)C(C)C)C(=O)O [Api794, gu-O(WO)3RPVYOPRPRPPHPRL-OH] ({Orn(α-tetramethylguanidino)}-W[Orn]W[Orn]W[Orn]RPVY[Orn]PRPRPPHPRL-OH)
remaining at 6 h, 0.5 g/L (P. aeruginosa elastase; Pseudomonas aeruginosa, isolated enzyme elastase, read-out: Peptide remaining with elastase): 79 ± 6%
MIC E. coli ATCC 25922 [1]: 16 µg/mL (≈ 5.4 µM)
MIC E. coli DSM 1103, high inoculum [1]: 64 µg/mL (≈ 21.6 µM)
MIC K. pneumoniae DSM 681 [2]: 32 µg/mL (≈ 10.8 µM)
MIC P. aeruginosa DSM 1117, high inoculum [3]: 64 µg/mL (≈ 21.6 µM)
Cell: r, ruptured (E. coli DSM 1103; 16 µg/mL): 0%
DNA/Ribosomes relocalized (E. coli DSM 1103; 16 µg/mL): 0%
Fragments: +++, long and thick (E. coli DSM 1103; 16 µg/mL): 0%
Fragments: ++, long and thin (E. coli DSM 1103; 16 µg/mL): 23%
Fragments: +, small and thin (E. coli DSM 1103; 16 µg/mL): 40%
Fragments: -, no (E. coli DSM 1103; 16 µg/mL): 37%
Fragments: LV, large vesicles (E. coli DSM 1103; 16 µg/mL): 0%
Membrane: i, intact (E. coli DSM 1103; 16 µg/mL): 33%
Membrane: w, wrinkled (E. coli DSM 1103; 16 µg/mL): 67%
Vesicle release strong (E. coli DSM 1103; 16 µg/mL): 100%
Cell: r, ruptured (E. coli DSM 1103; 64 µg/mL): 0%
DNA/Ribosomes relocalized (E. coli DSM 1103; 64 µg/mL): 0%
Fragments: +++, long and thick (E. coli DSM 1103; 64 µg/mL): 23%
Fragments: ++, long and thin (E. coli DSM 1103; 64 µg/mL): 33%
Fragments: +, small and thin (E. coli DSM 1103; 64 µg/mL): 27%
Fragments: -, no (E. coli DSM 1103; 64 µg/mL): 17%
Fragments: LV, large vesicles (E. coli DSM 1103; 64 µg/mL): 3%
Membrane: i, intact (E. coli DSM 1103; 64 µg/mL): 100%
Membrane: w, wrinkled (E. coli DSM 1103; 64 µg/mL): 0%
Vesicle release strong (E. coli DSM 1103; 64 µg/mL): 97%
Cell: r, ruptured (E. coli DSM 1103; 256 µg/mL): 0%
DNA/Ribosomes relocalized (E. coli DSM 1103; 256 µg/mL): 0%
Fragments: +++, long and thick (E. coli DSM 1103; 256 µg/mL): 3%
Fragments: ++, long and thin (E. coli DSM 1103; 256 µg/mL): 37%
Fragments: +, small and thin (E. coli DSM 1103; 256 µg/mL): 43%
Fragments: -, no (E. coli DSM 1103; 256 µg/mL): 17%
Fragments: LV, large vesicles (E. coli DSM 1103; 256 µg/mL): 93%
Membrane: i, intact (E. coli DSM 1103; 256 µg/mL): 3%
Membrane: w, wrinkled (E. coli DSM 1103; 256 µg/mL): 97%
Vesicle release strong (E. coli DSM 1103; 256 µg/mL): 97%
Cell: r, ruptured (E. coli DSM 1103; 512 µg/mL): 3%
DNA/Ribosomes relocalized (E. coli DSM 1103; 512 µg/mL): 30%
Fragments: +++, long and thick (E. coli DSM 1103; 512 µg/mL): 17%
Fragments: ++, long and thin (E. coli DSM 1103; 512 µg/mL): 30%
Fragments: +, small and thin (E. coli DSM 1103; 512 µg/mL): 37%
Fragments: -, no (E. coli DSM 1103; 512 µg/mL): 17%
Fragments: LV, large vesicles (E. coli DSM 1103; 512 µg/mL): 97%
Membrane: i, intact (E. coli DSM 1103; 512 µg/mL): 93%
Membrane: w, wrinkled (E. coli DSM 1103; 512 µg/mL): 7%
Vesicle release strong (E. coli DSM 1103; 512 µg/mL): 93%
